Consider eight molecules from US7935824B2, “Ethylenediamine derivatives” (Daiichi Pharmaceutical Co., Ltd., priority 2000, dated 2011).

Counter-ions that a name gives are not always drawn.

Broadly, the IC50 is the point on the concentration scale where inhibition reaches its midpoint.

T1 sequence (P00742 235-488 limits assumed): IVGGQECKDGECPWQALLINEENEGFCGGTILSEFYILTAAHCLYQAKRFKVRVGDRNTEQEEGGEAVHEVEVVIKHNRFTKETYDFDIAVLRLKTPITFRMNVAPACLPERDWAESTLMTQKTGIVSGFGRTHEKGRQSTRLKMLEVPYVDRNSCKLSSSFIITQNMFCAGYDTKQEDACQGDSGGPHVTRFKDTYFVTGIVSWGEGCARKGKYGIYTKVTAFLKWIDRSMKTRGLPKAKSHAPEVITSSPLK
T1 sequence (P00742 41-179 partner limits assumed): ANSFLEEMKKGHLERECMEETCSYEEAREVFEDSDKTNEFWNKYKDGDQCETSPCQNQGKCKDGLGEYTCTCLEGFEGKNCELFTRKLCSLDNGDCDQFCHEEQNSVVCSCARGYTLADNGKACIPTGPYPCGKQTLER

The test has as its target T1, human FXa (Homo sapiens, UniProt P00742).
T1 construct: purchased Cosmobio ERL HFXa-1011
Kind of test: Determination of FXa-inhibiting effect (IC50 value), chromogenic substrate S2222. It counts as biochemical. Conditions: 0.05 U/ml human FXa, substrate S2222, absorbance at 405 nm, room temperature, pH 7.4 buffer.
As for `CC(C)(CO)N1CCc2nc(C(=O)N[C@@H]3CC(CO)C[C@H]3NC(=O)c3cc4cc(Cl)ccc4[nH]3)sc2C1` (single isomer, unassigned; stereoisomer b) [Example 70, (1R*,2R*)-N^1-[(5-Chloroindol-2-yl)carbonyl]-N^2-[5-(1-dimethyl-2-hydroxyethyl)-4,5,6,7-tetrahydrothiazolo-[5,4-c]pyridin-2-yl)carbonyl]-4-hydroxymethyl-1,2-cyclopentanediamine hydrochloride (Stereoisomer B)], 2.7 nM corresponded to half-maximal inhibition (IC50).

Molecule `CN1CCc2nc(C(=O)N[C@@H]3C[C@@H](CO)CC[C@H]3NC(=O)c3cc4cc(Cl)ccc4[nH]3)sc2C1` [Example 176, (1R,2R,4S)—N^1-[(5-Chloroindol-2-yl)carbonyl]-4-hydroxymethyl-N^2-[(5-methyl-4,5,6,7-tetrahydrothiazolo[5,4-c]pyridin-2-yl)carbonyl]-1,2-cyclohexanediamine] displayed an IC50 of 3.3 nM.

Molecule `CN1CCc2nc(C(=O)N[C@@H]3CCC[C@H]3NC(=O)c3cc4cc(Cl)ccc4[nH]3)sc2C1` (racemic) [Example 3, (±)-trans-N^1-[(5-Chloroindol-2-yl)carbonyl]-N^2-[(5-methyl-4,5,6,7-tetrahydrothiazolo[5,4-c]pyridin-2-yl)carbonyl]-1,2-cyclopentanediamine hydrochloride] displayed an IC50 of 86 nM.

As for `CN1CCc2nc(C(=O)N[C@@H]3CCCC[C@@H]3NC(=O)c3cc4cc(Br)ccc4[nH]3)sc2C1` (racemic) [Example 15, (±)-cis-N^1-[(5-Bromoindol-2-yl)carbonyl]-N^2-[(5-methyl-4,5,6,7-tetrahydrothiazolo[5,4-c]pyridin-2-yl)carbonyl]-1,2-cyclohexanediamine hydrochloride], the IC50 was found to be 92 nM.

`CN1Cc2nc(C(=O)N[C@@H]3CCCC[C@@H]3NC(=O)c3cc4cc(Cl)ccc4[nH]3)sc2C1` (racemic) [Example 41, (±)-cis-N^1-[(5-Chloroindol-2-yl)carbonyl]-N^2-[(5-methyl-4,6-dihydro-5H-pyrrolo[3,4-d]thiazol-2-yl)carbonyl]-1,2-cyclohexanediamine hydrochloride] came in with an IC50 of 36 nM.

“(±)-cis-N^1(or N^2)-[(5-Chloroindol-2-yl)carbonyl]-4,4-(1,2-ethylenedioxy)-N^2(or N^1)-[(5-methyl-4,5,6,7-tetrahydrothiazolo[5,4-c]pyridin-2-yl)carbonyl]-1,2-cyclohexanediamine [Example 167]” returned a concentration for half-maximal inhibition (IC50) of 1.4 nM.

`CC(C)N1CCc2nc(C(=O)N[C@@H]3CC(CO)C[C@H]3NC(=O)c3cc4cc(Cl)ccc4[nH]3)sc2C1` (single isomer, unassigned; stereoisomer b) [Example 68, (1R*,2R*)-N^1-[(5-Chloroindol-2-yl)carbonyl]-4-hydroxymethyl-N^2-[(5-isopropyl-4,5,6,7-tetrahydro-thiazolo[5,4-c]pyridin-2-yl)carbonyl]-1,2-cyclopentanediamine hydrochloride (Stereoisomer B)] registered a concentration for half-maximal inhibition (IC50) of 4.1 nM.

In turn, `CN1CCc2nc(C(=O)N[C@@H]3CCCC[C@@H]3NC(=O)c3ccc4cc(Cl)ccc4c3)sc2C1` (racemic) [Example 10, (±)-cis-N^1-[(6-Chloronaphthalen-2-yl)carbonyl]-N^2-[(5-methyl-4,5,6,7-tetrahydrothiazolo[5,4-c]pyridin-2-yl)-carbonyl]-1,2-cyclohexanediamine hydrochloride] had an IC50 of 83 nM.
